Measurements: article PMC3217308 (Journal of Agricultural and Food Chemistry, 2011)

Biological target: T1, human sweet taste receptor, hT1R2/hT1R3 (Homo sapiens, UniProt Q7RTX0+Q8TE23)
T1 sequence (Q8TE23 20-839): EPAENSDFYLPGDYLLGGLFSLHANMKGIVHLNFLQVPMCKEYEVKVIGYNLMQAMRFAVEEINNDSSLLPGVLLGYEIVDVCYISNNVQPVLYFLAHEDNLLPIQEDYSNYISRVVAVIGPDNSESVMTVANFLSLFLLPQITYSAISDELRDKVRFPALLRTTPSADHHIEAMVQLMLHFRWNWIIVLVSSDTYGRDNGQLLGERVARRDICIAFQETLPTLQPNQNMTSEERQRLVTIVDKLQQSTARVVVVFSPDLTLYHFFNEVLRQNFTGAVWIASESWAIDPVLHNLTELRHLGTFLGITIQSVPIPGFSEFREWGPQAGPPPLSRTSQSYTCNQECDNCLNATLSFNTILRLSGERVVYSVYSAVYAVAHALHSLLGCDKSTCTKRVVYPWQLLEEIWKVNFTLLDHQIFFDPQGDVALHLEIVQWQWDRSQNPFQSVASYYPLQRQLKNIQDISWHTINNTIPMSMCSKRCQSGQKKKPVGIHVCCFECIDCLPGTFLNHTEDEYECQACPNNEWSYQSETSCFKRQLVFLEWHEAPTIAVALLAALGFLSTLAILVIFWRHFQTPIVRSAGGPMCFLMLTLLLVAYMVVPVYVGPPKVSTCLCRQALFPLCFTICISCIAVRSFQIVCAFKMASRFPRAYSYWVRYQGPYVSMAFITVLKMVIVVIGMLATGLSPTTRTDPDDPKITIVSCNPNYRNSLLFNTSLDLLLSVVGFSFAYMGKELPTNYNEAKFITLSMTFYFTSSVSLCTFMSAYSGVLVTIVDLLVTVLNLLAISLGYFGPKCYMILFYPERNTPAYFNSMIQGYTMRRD
T1 sequence (Q7RTX0 21-852): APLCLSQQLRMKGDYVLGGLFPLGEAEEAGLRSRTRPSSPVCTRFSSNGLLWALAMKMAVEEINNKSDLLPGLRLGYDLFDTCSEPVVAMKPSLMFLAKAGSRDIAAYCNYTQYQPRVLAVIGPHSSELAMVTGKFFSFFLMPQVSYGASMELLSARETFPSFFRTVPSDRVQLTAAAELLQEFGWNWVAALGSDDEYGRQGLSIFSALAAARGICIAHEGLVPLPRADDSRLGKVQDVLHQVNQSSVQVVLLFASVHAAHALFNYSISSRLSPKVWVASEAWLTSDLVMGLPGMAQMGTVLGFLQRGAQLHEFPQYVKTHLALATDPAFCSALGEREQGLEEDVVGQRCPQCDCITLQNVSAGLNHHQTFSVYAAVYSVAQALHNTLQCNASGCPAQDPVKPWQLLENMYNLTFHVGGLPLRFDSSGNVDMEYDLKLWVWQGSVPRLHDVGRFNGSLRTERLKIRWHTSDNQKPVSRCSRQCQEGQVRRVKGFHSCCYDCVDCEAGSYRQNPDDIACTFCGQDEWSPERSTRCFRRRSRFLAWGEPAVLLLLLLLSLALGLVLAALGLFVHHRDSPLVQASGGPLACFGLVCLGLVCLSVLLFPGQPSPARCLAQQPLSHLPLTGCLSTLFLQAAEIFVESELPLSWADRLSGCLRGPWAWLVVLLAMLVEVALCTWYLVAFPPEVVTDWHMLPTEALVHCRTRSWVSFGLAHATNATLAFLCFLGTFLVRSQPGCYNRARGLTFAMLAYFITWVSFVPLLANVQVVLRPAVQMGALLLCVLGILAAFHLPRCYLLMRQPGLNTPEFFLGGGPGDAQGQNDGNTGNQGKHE
Test: Luminescence assay
Assay type: cell-based
Settings: aequorin assay, 10–40 nM BCECF

- nonspecific signals: did not produce nonspecific signals
Substance: 2′,7′-bis-(2-carboxyethyl)-5-(and-6)-carboxyfluorescein [BCECF]
